Laboratory results from the NIST ThermoML archive (doi:10.1021/acs.jced.6b00201).
Numbers after ± are expanded uncertainties.

Assays:
[1] = Molar enthalpy of transition or fusion; settings: DSC
[2] = for Triple point temperature / Glass transition temperature: DSC; for Normal melting temperature: visual observation

Row | SMILES | Molar enthalpy of transition or fusion ([1]; Crystal 1) | Triple point temperature ([2]; Crystal) | Glass transition temperature [2] | Normal melting temperature ([2]; Crystal) | other results
1 | CCCCCCCCn1cc[n+](C)c1.O=S(=O)([O-])C(F)(F)F [1-octyl-3-methylimidazolium trifluoromethanesulfonate] | 5.76 ± 0.165 kcal/mol | 283.51 ± 1.2 K | – | – | –
2 | CCCCn1cc[n+](C)c1.F[B-](F)(F)F [1-butyl-3-methylimidazolium tetrafluoroborate] | – | – | -83.90 ± 8 °C | – | –
3 | CCCCn1cc[n+](C)c1.O=S(=O)([O-])C(F)(F)F [1-butyl-3-methylimidazolium trifluoromethanesulfonate] | – | 291.46 ± 1.2 K | – | – | Molar enthalpy of transition or fusion ([1]; Crystal): 4.82 ± 0.141 kcal/mol
4 | CCCCn1cc[n+](C)c1.F[P-](F)(F)(F)(F)F [1-butyl-3-methylimidazolium hexafluorophosphate] | 2.73 ± 0.0837 kcal/mol | – | -74.28 ± 1.2 °C | – | Triple point temperature ([2]; Crystal 1): 286.46 ± 1.2 K
5 | NC(=O)c1cnccn1 [pyrazinecarboxamide] | – | – | – | 188.27 ± 0.16 °C | –
6 | NNC(=O)c1ccncc1 [isonicotinic acid hydrazide] | – | – | – | 172.69 ± 2 °C | –
